From PubChem BioAssay (NCI)
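Compound exposure: 48 hours, 5 concentrations, 96-well plates. GI50: concentration for 50% inhibition of growth. TGI is the concentration that stops growth completely.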

Tests used:
Test in all cases: NCI-60 cell line screen, 48 h
MDA-MB-231 breast = tested on: MDA-MB-231 breast
SF-268 CNS = tested on: SF-268 CNS
SK-MEL-2 melanoma = tested on: SK-MEL-2 melanoma
M14 melanoma = tested on: M14 melanoma
HOP-92 NSCLC = tested on: HOP-92 NSCLC
HCT-116 colon = tested on: HCT-116 colon
CAKI-1 renal = tested on: CAKI-1 renal
HT29 colon = tested on: HT29 colon
SF-295 CNS = tested on: SF-295 CNS
HCT-15 colon = tested on: HCT-15 colon
IGROV1 ovarian = tested on: IGROV1 ovarian
A498 renal = tested on: A498 renal
SK-MEL-5 melanoma = tested on: SK-MEL-5 melanoma
SN12C renal = tested on: SN12C renal
LOX IMVI melanoma = tested on: LOX IMVI melanoma
EKVX NSCLC = tested on: EKVX NSCLC
SR leukemia = tested on: SR leukemia
NCI-H460 lung = tested on: NCI-H460 lung
NCI-H23 lung = tested on: NCI-H23 lung
BT-549 breast = tested on: BT-549 breast
NCI/ADR-RES ovarian = tested on: NCI/ADR-RES ovarian
786-0 renal = tested on: 786-0 renal
CCRF-CEM leukemia = tested on: CCRF-CEM leukemia
K-562 leukemia = tested on: K-562 leukemia
OVCAR-3 ovarian = tested on: OVCAR-3 ovarian
UACC-62 melanoma = tested on: UACC-62 melanoma
HS 578T breast = tested on: HS 578T breast
MCF7 breast = tested on: MCF7 breast
U251 CNS = tested on: U251 CNS
HCC-2998 colon = tested on: HCC-2998 colon
T-47D breast = tested on: T-47D breast
NCI-H522 lung = tested on: NCI-H522 lung
HL-60(TB) leukemia = tested on: HL-60(TB) leukemia
SNB-19 CNS = tested on: SNB-19 CNS
MALME-3M melanoma = tested on: MALME-3M melanoma
DU-145 prostate = tested on: DU-145 prostate
RPMI-8226 leukemia = tested on: RPMI-8226 leukemia
SF-539 CNS = tested on: SF-539 CNS
MOLT-4 leukemia = tested on: MOLT-4 leukemia
NCI-H226 lung = tested on: NCI-H226 lung
OVCAR-5 ovarian = tested on: OVCAR-5 ovarian
KM12 colon = tested on: KM12 colon
HOP-62 NSCLC = tested on: HOP-62 NSCLC
RXF 393 renal = tested on: RXF 393 renal
MDA-MB-435 = tested on: MDA-MB-435
SK-MEL-28 melanoma = tested on: SK-MEL-28 melanoma
A549 NSCLC = tested on: A549 NSCLC
OVCAR-8 ovarian = tested on: OVCAR-8 ovarian
TK-10 renal = tested on: TK-10 renal
UO-31 renal = tested on: UO-31 renal
SW-620 colon = tested on: SW-620 colon
ACHN renal = tested on: ACHN renal
UACC-257 melanoma = tested on: UACC-257 melanoma
PC-3 prostate = tested on: PC-3 prostate
SNB-75 CNS = tested on: SNB-75 CNS
OVCAR-4 ovarian = tested on: OVCAR-4 ovarian
SK-OV-3 ovarian = tested on: SK-OV-3 ovarian
COLO 205 colon = tested on: COLO 205 colon

NS(=O)(=O)c1ccc(CCN=C=S)cc1
GI50 (MDA-MB-231 breast): 2.03 µM
TGI (MDA-MB-231 breast): 4.4 µM
GI50 (SF-268 CNS): 2.83 µM
TGI (SF-268 CNS): 10.1 µM
GI50 (SK-MEL-2 melanoma): 2.3 µM
TGI (SK-MEL-2 melanoma): 5.84 µM
GI50 (M14 melanoma): 2.09 µM
TGI (M14 melanoma): 4.51 µM
GI50 (HOP-92 NSCLC): 1.33 µM
TGI (HOP-92 NSCLC): 3.36 µM
GI50 (HCT-116 colon): 1.75 µM
TGI (HCT-116 colon): 3.45 µM
GI50 (CAKI-1 renal): 1.53 µM
TGI (CAKI-1 renal): 3.03 µM
GI50 (HT29 colon): 2.54 µM
TGI (HT29 colon): 6.66 µM
GI50 (SF-295 CNS): 14.6 µM
TGI (SF-295 CNS): 27.8 µM
GI50 (HCT-15 colon): 1.3 µM
TGI (HCT-15 colon): 3.37 µM
GI50 (IGROV1 ovarian): 2.1 µM
TGI (IGROV1 ovarian): 4.96 µM
GI50 (A498 renal): 2.21 µM
TGI (A498 renal): 7.99 µM
GI50 (SK-MEL-5 melanoma): 2.14 µM
TGI (SK-MEL-5 melanoma): 4.89 µM
GI50 (SN12C renal): 2.17 µM
TGI (SN12C renal): 5.14 µM
GI50 (LOX IMVI melanoma): 1.92 µM
TGI (LOX IMVI melanoma): 3.72 µM
GI50 (EKVX NSCLC): 2.35 µM
TGI (EKVX NSCLC): 6.23 µM
GI50 (SR leukemia): 2.44 µM
TGI (SR leukemia): > 100 µM
GI50 (NCI-H460 lung): 3.53 µM
TGI (NCI-H460 lung): 13.1 µM
GI50 (NCI-H23 lung): 2.62 µM
TGI (NCI-H23 lung): 7.54 µM
GI50 (BT-549 breast): 2.03 µM
TGI (BT-549 breast): 4.37 µM
GI50 (NCI/ADR-RES ovarian): 3.2 µM
TGI (NCI/ADR-RES ovarian): 11.3 µM
GI50 (786-0 renal): 1.71 µM
TGI (786-0 renal): 3.34 µM
GI50 (CCRF-CEM leukemia): 2.65 µM
TGI (CCRF-CEM leukemia): 7.45 µM
GI50 (K-562 leukemia): 2.54 µM
TGI (K-562 leukemia): > 100 µM
GI50 (OVCAR-3 ovarian): 1.7 µM
TGI (OVCAR-3 ovarian): 3.13 µM
GI50 (UACC-62 melanoma): 1.81 µM
TGI (UACC-62 melanoma): 3.59 µM
GI50 (HS 578T breast): 3.21 µM
TGI (HS 578T breast): 15.5 µM
GI50 (MCF7 breast): 0.808 µM
TGI (MCF7 breast): 3.13 µM
GI50 (U251 CNS): 1.94 µM
TGI (U251 CNS): 4.13 µM
GI50 (HCC-2998 colon): 1.88 µM
TGI (HCC-2998 colon): 3.55 µM
GI50 (T-47D breast): 0.638 µM
TGI (T-47D breast): 3.36 µM
GI50 (NCI-H522 lung): 1.37 µM
TGI (NCI-H522 lung): 3.57 µM
GI50 (HL-60(TB) leukemia): 3.32 µM
TGI (HL-60(TB) leukemia): 11.2 µM
GI50 (SNB-19 CNS): 2.92 µM
TGI (SNB-19 CNS): 9.26 µM
GI50 (MALME-3M melanoma): 2.22 µM
TGI (MALME-3M melanoma): 5.35 µM
GI50 (DU-145 prostate): 1.8 µM
TGI (DU-145 prostate): 3.83 µM
GI50 (RPMI-8226 leukemia): 0.667 µM
TGI (RPMI-8226 leukemia): 5.2 µM
GI50 (SF-539 CNS): 1.87 µM
TGI (SF-539 CNS): 3.85 µM
GI50 (MOLT-4 leukemia): 3.05 µM
TGI (MOLT-4 leukemia): > 100 µM
GI50 (NCI-H226 lung): 2.84 µM
TGI (NCI-H226 lung): 8.52 µM
GI50 (OVCAR-5 ovarian): 1.85 µM
TGI (OVCAR-5 ovarian): 3.78 µM
GI50 (KM12 colon): 1.47 µM
TGI (KM12 colon): 3.06 µM
GI50 (HOP-62 NSCLC): 3.23 µM
TGI (HOP-62 NSCLC): 10.1 µM
GI50 (RXF 393 renal): 1.62 µM
TGI (RXF 393 renal): 3.18 µM
GI50 (MDA-MB-435): 1.91 µM
TGI (MDA-MB-435): 3.88 µM
GI50 (SK-MEL-28 melanoma): 2.59 µM
TGI (SK-MEL-28 melanoma): 7.28 µM
GI50 (A549 NSCLC): 2.03 µM
TGI (A549 NSCLC): 4.85 µM
GI50 (OVCAR-8 ovarian): 3.15 µM
TGI (OVCAR-8 ovarian): 10.3 µM
GI50 (TK-10 renal): 0.987 µM
TGI (TK-10 renal): 3.79 µM
GI50 (UO-31 renal): 1.53 µM
TGI (UO-31 renal): 2.87 µM
GI50 (SW-620 colon): 1.84 µM
TGI (SW-620 colon): 3.96 µM
GI50 (ACHN renal): 1.85 µM
TGI (ACHN renal): 3.65 µM
GI50 (UACC-257 melanoma): 2.74 µM
TGI (UACC-257 melanoma): 9.24 µM
GI50 (PC-3 prostate): 2.03 µM
TGI (PC-3 prostate): 5.23 µM
GI50 (SNB-75 CNS): 1.16 µM
TGI (SNB-75 CNS): 3.16 µM
GI50 (OVCAR-4 ovarian): 1.9 µM
TGI (OVCAR-4 ovarian): 4.15 µM
GI50 (SK-OV-3 ovarian): 18.2 µM
TGI (SK-OV-3 ovarian): 32.4 µM
GI50 (COLO 205 colon): 2.15 µM
TGI (COLO 205 colon): 4.52 µM
